For orientation: Papp means the rate of passage across a membrane or cell layer, normalised by area and donor concentration.

Like-named read-outs stand apart in the source and are kept apart here. Marks after values point to notes of the source that are not given here.

The conditions of series [1]: fraction absorbed, oral; cited from earlier work.
The subject of series [2] is human intestinal epithelial Caco-2 cell monolayer. To be noted: apical pH 6.0 to basal pH 7.4, mean ± SD of triplicate; for Papp: Table 1 primary set; for observed Papp: Table 2 secondary set.
Another series is described as follows: in vitro. To be noted: human, Caco-2.
A further series deals with liver (hepatotoxicity). The note with it: cited from earlier work.
[3] abbreviates: Table 2, Hazard Evaluation Support System Integrated Platform.

lucifer yellow [reference compound]: the “reported human Fa” value in series [1] was 0 [27] %. Also, in series [2], the Papp is on record as 7 ± 1 nm/s.

In turn, `CCCCC(CC)COC(=O)c1ccccc1C(=O)O` (stereo not drawn) [mono(2-ethylhexyl) phthalate] came in with a Papp in series [2] of 467 ± 18 nm/s.

Consider `CC(=O)Nc1ccc(O)cc1` [acetaminophen, reference compound], for which the “reported human Fa” value in series [1] was 100 [23] %. The same molecule came in with a Papp in “in vitro” of 31.9 ± 1.4 ×10⁻⁶ cm/s. Moreover, the “hepatic NOEL” value in the series with liver (hepatotoxicity) (Table 2) was 250 [11] mg/kg/day.

As to `Oc1ccc(Cc2ccc(O)cc2)cc1` [bisphenol F], the “hepatic NOEL” value with liver (hepatotoxicity) (setting [3]) was 100 mg/kg/day. For the same molecule, in series [2], the “observed Papp” value is 41.5 ± 2.1 ×10⁻⁶ cm/s.

Regarding `N#Cc1cccc(C#N)c1` [isophthalonitrile], the “hepatic NOEL” value in the series with liver (hepatotoxicity) (Table 1, Hazard Evaluation Support System Integrated Platform) is 8 mg/kg/day. Besides, in series [2], the Papp is 805 ± 8 ^a nm/s.

For the molecule `CCOc1ccc(N)cc1` [p-phenetidine], the “hepatic NOEL” value with liver (hepatotoxicity) (setting [3]) was 160 mg/kg/day. Also, the “observed Papp” value in series [2] is 58.2 ± 3.1 ×10⁻⁶ cm/s.

For the molecule `CN(C)C` [trimethylamine], the Papp in series [2] is recorded as 33 ± 1 nm/s.

Consider `CN(Cc1cnc2nc(N)nc(N)c2n1)c1ccc(C(=O)N[C@@H](CCC(=O)O)C(=O)O)cc1` [methotrexate, reference compound], for which the “reported human Fa” value in series [1] was 20 [24] %. The Papp in the series “in vitro” was 1.1 ± 0.2 ×10⁻⁶ cm/s.

The values above are taken from paper PMC6976901 (Toxicology Reports, 2020).
